Laboratory results reported in patent publication US20240189275A1, “METHODS FOR TREATING NON-ALCOHOLIC STEATOHEPATITIS WITH A SCD-1 INHIBITOR” (Lipidio Pharmaceuticals, Inc., priority 2021, published 2024).

Key:
human SCD-1 = target: T1, human SCD-1 (Homo sapiens, UniProt O00767); assay: Inhibition of SCD-1 activity in human liver microsomes (13C-stearoyl-CoA to 13C-oleoyl-CoA, LC/MS/MS); format: biochemical; conditions: FIG. 1, IC50 value not given
T1 construct: human liver microsome (HLM, InVitroCYP™ H-class, Pool of 25 donors BiolVT); tissue BiolVT InVitroCYP™ H-class; host or cells: human liver microsomes, pool of 25 donors
T1 sequence (O00767 1-359): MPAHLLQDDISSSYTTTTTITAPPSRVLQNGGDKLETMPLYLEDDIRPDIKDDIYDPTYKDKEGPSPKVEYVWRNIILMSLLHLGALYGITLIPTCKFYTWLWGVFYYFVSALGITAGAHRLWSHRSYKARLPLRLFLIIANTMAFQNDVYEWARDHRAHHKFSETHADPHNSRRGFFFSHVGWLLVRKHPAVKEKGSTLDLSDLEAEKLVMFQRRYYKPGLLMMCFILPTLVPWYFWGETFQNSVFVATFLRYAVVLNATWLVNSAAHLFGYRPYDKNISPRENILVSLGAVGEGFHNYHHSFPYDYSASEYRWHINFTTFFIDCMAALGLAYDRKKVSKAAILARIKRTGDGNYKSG
Protocol: The ability of the compound to inhibit isolated SCD-1 enzyme activity can be evaluated in rat and human microsomes as described below (Oncotarget (2018), 9, 3-20). The compound is added as various concentrations to the liver microsomes and incubated for 5 minutes with ^13C-labelled Stearoyl CoA, which is the substrate for SCD-1. The activity of SCD-1 is then determined by the conversion of ^13C-Steoryl CoA to ^13C-Oleoyl CoA using an LC/MS/MS method. The ability of the compound to inhibit SCD-1 activity is expressed as an IC50.
Compound 25 is dissolved in DMSO to prepare a 10 mM stock solution.
Rat liver microsomes (RLM, BiolVT) and human liver microsome (HLM, InVitroCYP™ H-class, Pool of 25 donors BiolVT) solutions are prepared by adding the microsomes to 100 mM sodium phosphate, pH 7.4, at a protein concentration of 1.00 mg/mL.
Compound 25 stock solution is then added to the RLM and HLM solution at an initial concentration of 0.2 μM for direct inhibition. Each LM/Inhibitor Solution is added to blank LM solution to give 8 concentrations prepared by a 3-fold serial dilution. These diluted LM/inhibitor solutions are then added to a reaction buffer containing 2 mM NADH, 120 μM Coenzyme A, 2 mM ATP, 2 mM DTT, and 10 mM MgCl2 in 100 mM sodium phosphate, pH 7.4.
A Stearoyl-^13Cis-CoA solution in 10% methanol in water is prepared at a final concentration of 3.00 mM. […]

[1] = test system: diet-induced and biopsy-confirmed mouse model of NASH; assay: Terminal hepatic triglyceride content in mouse model of NASH; format: in vivo, mice; conditions: 2.5% gel, week 12; p<0.001
Protocol: (§1) SCD-1 inhibitor compounds can be tested in vivo in a rodent diet-induced model of biopsy-confirmed NASH. In this experiment, the NASH phenotype is induced by maintaining mice upon a GAN diet for 33 weeks prior to drug administration (BMC Gastroenterology (2020), 20(1), 210; World Journal of Gastroenterology (2019), 25(33), 4904-4920). A biopsy is performed prior to drug treatment to eliminate any mice that have not developed the NASH phenotype and to mirror clinical trial design where liver biopsies prior to and at the end of treatment are compared. In addition to pre- and post-treatment histological analyses, metabolic assessments such as body weight, body composition, food intake and clinical chemistries are measured during and following the 12-week study dosing period.
(§2) Mice were dosed topically to 10% of the total BSA of the skin with either a placebo gel or a gel containing compound 25 (at a concentration of 0.05%, 0.25%, 0.75%, or 2.5%). (World Journal of Gastroenterology (2018), 24(2), 179-194).
Animals and Diet: The Danish Animal Experiments Inspectorate approved all experiments which were conducted using internationally accepted principles for the use of laboratory animals under the personal license #2013-15-2934-00784. […] Mice were weighed daily during the study and body composition was measured by non-invasive EchoMRI scanning using EchoMRI-900 (EchoMRI, Houston, TX). […]

[2] = test system: liver genes involved in inflammation, fibrogenesis, extracellular matrix formation and NASH progression; assay: RNASeq of terminal liver samples (mRNA expression) in mouse model of NASH; format: in vivo, mice
Protocol: The effects of topical treatment of Compound 25 to 10% of the skin for 12 weeks were assessed in a diet-induced and biopsy-confirmed mouse model of NASH described in the literature (World Journal of Gastroenterology (2019), 25(33), 4904-4920). In this model, NASH is induced by maintaining mice on a high fat-high fructose diet (the so-called GAN [Novel Gubra Amylin] diet) for 33 weeks prior to drug administration. […] This biopsy is then compared to a post-drug treatment biopsy to assess changes in NAFLD activity and Fibrosis Stage. Qualitative scoring is completed with quantitative immunohistochemistry to assess effects on hepatic steatosis, inflammation (Galectin-3), fibrosis (Collagen 1a1 and Picro-Sirius Red Staining) and stellate cell activation (α-SMA). RNASeq was also performed on terminal liver samples from mice treated with placebo gel and compound 25 gel to examine key candidate genes involved in extracellular matrix formation (ECM) and fibrogenesis. Parametric (ANOVA) and non-parametric (Fisher's or Chi Square) statistics were used to analyze the data as appropriate.
as §1, §2
Animals and Diet: The Danish Animal Experiments Inspectorate approved all experiments which were conducted using internationally accepted principles for the use of laboratory animals under the personal license #2013-15-2934-00784. B6.V-Lepob/JRj (ob/ob) mice (6 weeks old) were from Janvier Labs (Le Genest Saint Isle, France) and housed in a controlled environment (12h light/dark cycle, lights on at 3 AM, 21+2° C., humidity 50+10%). Each animal was identified by an implantable subcutaneous microchip (PetID Microchip, E-vet, Haderslev, Denmark). Mice had ad libitum access to tap water and the Gubra Amylin NASH diet [GAN diet; 40 kcal-% fat (of these 0% trans-fat and 46% saturated fatty acids by weight), 22% fructose, 10% sucrose, 2% cholesterol; D09100310, Research Diets]. Mice were maintained on the GAN diet for 33 weeks prior to study initiation to induce NASH and remained on the GAN diet during the 12 weeks of drug administration. Mice were weighed daily during the study and body composition was measured by non-invasive EchoMRI scanning using EchoMRI-900 (EchoMRI, Houston, TX).

O=C(COc1ccc(CO)cc1)N1CC[C@H](Oc2ccccc2C(F)(F)F)C1 [Compound 25, (S)-2-(4-(hydroxymethyl)phenoxy)-1-(3-(2-(trifluoromethyl)phenoxy)pyrrolidin-1-yl)ethan-1-one]
inhibition of human SCD-1 activity (human SCD-1): concentration-dependent inhibition | liver triglyceride content [1]: significantly reduced | liver Galectin-3 mRNA ([2]; 2.5% gel): Reduced | liver mRNA expression of genes associated with NASH progression and poor prognosis ([2]; 2.5% gel, Aldh8a1, Aldh7a1, Annexin A2, CD36, CNBP, CIDEC, Cyclin D1, Fasn, Hsbp1, KIF6, Nfe212, Perilipin 2): significant regulation | liver mRNA expression of genes involved in hepatic inflammation ([2]; 2.5% gel, Chemokine Ligand 2, Chemokine Ligand 5, Epithelial Cell Adhesion Protein, Cluster of Differentiation 68, Integrin X): significantly downregulated | liver mRNA expression of genes involved in NASH fibrogenesis and extracellular matrix formation ([2]; 2.5% gel, Monocyte Chemoattractant Protein-1, Osteonectin, α-SMA, Collagen 1a1, Collagen 3a1, Collagen 4a1): significantly downregulated | candidate genes whose expression may be predictive for poor outcomes like liver cirrhosis and cancer ([2]; conclusion, dose not specified): favorably regulated
